Read-outs that look alike come from different tables or passages of the source.
Legend:
[1] = test system: Bacillus subtilis (Bs); assay: MIC in nutrient agar, Bacillus subtilis; assay type: cell-based, Bacillus subtilis ATCC 8473; settings: Bacillus subtilis, read-out: Minimum Inhibitory Concentration, Bs
Procedure: (§1) The minimum inhibitory concentration (MIC) for the compounds listed in Table I is determined for 9 bacteria, using nutrient agar, and 7 yeast and fungi, using malt yeast agar. A one percent solution of the test compound is prepared in a mixture of acetone and water. Nutrient agar is prepared at pH 6.8, representing a neutral medium, and at pH 8.2, representing an alkaline medium. The nutrient agars are prepared by adding 23 g of nutrient agar to one-liter of deionized water. In addition, the alkaline medium is prepared by adjusting a 0.04M solution of N-[tris-(hydroxymethyl)methyl]-glycine buffered deionized water with concentrated sodium hydroxide to a pH of […]. Malt yeast agar is prepared by adding 3 g yeast extract and 45 g malt agar per liter of deionized water. The specific agar is dispensed in 30 ml aliquots into 25×200 mm test tubes, capped and autoclaved for 15 minutes at 115° C. The test tubes containing the agar are cooled in a water bath until the temperature of the agar is 48° C. Then, an appropriate amount of the one percent solution of the test compound is added (except in the controls where no compound is added) to the respective test tubes so that the final concentrations are 500, 250, 100, 50, 25, 10, 5, 2.5, 1.0 and zero parts per million of the test compound in the agar, thus having a known concentration of test compound dispersed therein. The contents of the test tubes are then transferred to respective petri plates. After drying for 24 hours, the petri plates containing nutrient agar are inoculated with bacteria and those containing malt yeast agar are inoculated with yeast and fungi.
(§2) The inoculation with bacteria is accomplished by using the following procedure. Twenty-four hour-cultures of each of the bacteria are prepared by incubating the respective bacteria in tubes containing nutrient broth for 24 hours at 30° C. in a shaker. Dilutions of each of the 24 hour-cultures are made so that nine separate suspensions (one for each of the nine test bacteria) are made, each containing 10^8 colony forming units (CFU) per ml of suspension of a particular bacteria. Aliquots of 0.3 ml of each of the bacterial suspensions are used to fill the individual wells of Steer's Replicator. For each microbial suspension, 0.3 ml was used to fill three wells (i.e., three wells of 0.3 ml each) so that for the nine different bacteria, 27 wells are filled. The Steer's Replicator is then used to inoculate both the neutral and alkaline pH nutrient agar petri plates.
(§3) The inoculated petri plates are incubated at 30° C. for 48 hours and then read to determine if the test compound which is incorporated into the agar prevented growth of the respective bacteria.
(§4) Table II lists the bacteria, yeast and fungi used in the MIC test described above along with their respective American Type Culture Collection (ATCC) identification numbers.
(§5) The following MIC and MEC antimicrobial tests, whose results are shown in Tables XIII-XVII, are performed using the same methods as described hereinabove.

[2] = test system: Enterobacter aerogenes (Ea); assay: MIC in nutrient agar, Enterobacter aerogenes; assay type: cell-based, Enterobacter aerogenes ATCC 13048
Procedure: as §1, §2, §3, §4, §5

[3] = test system: Escherichia coli (Ec); assay: MIC in nutrient agar, Escherichia coli; assay type: cell-based, Escherichia coli ATCC 11229
Procedure: as §1, §2, §3, §4, §5

[4] = test system: Klebsiella pneumoniae (Kp); assay: MIC in nutrient agar, Klebsiella pneumoniae; assay type: cell-based, Klebsiella pneumoniae ATCC 8308
Procedure: as §1, §2, §3, §4, §5

[5] = test system: Proteus vulgaris (Pv); assay: MIC in nutrient agar, Proteus vulgaris; assay type: cell-based, Proteus vulgaris ATCC 881
Procedure: as §1, §2, §3, §4, §5

[6] = test system: Pseudomonas aeruginosa (PRD-10); assay: MIC in nutrient agar, Pseudomonas aeruginosa PRD-10; assay type: cell-based, Pseudomonas aeruginosa ATCC 15442
Procedure: as §1, §2, §3, §4, §5

[7] = test system: Pseudomonas aeruginosa (Pa); assay: MIC in nutrient agar, Pseudomonas aeruginosa; assay type: cell-based, Pseudomonas aeruginosa ATCC 10145
Procedure: as §1, §2, §3, §4, §5

[8] = test system: Salmonella choleraesuis (Sc); assay: MIC in nutrient agar, Salmonella choleraesuis; assay type: cell-based, Salmonella choleraesuis ATCC 10708
Procedure: as §1, §2, §3, §4, §5

[9] = test system: Staphylococcus aureus (Sa); assay: MIC in nutrient agar, Staphylococcus aureus; assay type: cell-based, Staphylococcus aureus ATCC 6538; settings: Staphylococcus aureus, read-out: Minimum Inhibitory Concentration, Sa
Procedure: as §1, §2, §3, §4, §5

[10] = test system: Aspergillus niger (An); assay: MIC in malt yeast agar, Aspergillus niger; assay type: cell-based, Aspergillus niger ATCC 16404; settings: malt yeast agar; read-out: Minimum Inhibitory Concentration, An
Procedure: as §1
(§6) The inoculation with the yeast and fungi is accomplished as follows. Cultures of yeast and fungi are incubated for seven days on malt yeast agar at 30° C. These cultures are used to prepare suspensions by the following procedure. A suspension of each organism is prepared by adding 10 ml of sterile saline and 10 microliters of octylphenoxy polyethoxy ethanol (TRITON® X-100, a trademark of Rohm & Haas Company) to the agar slant of yeast or fungi. The sterile saline/octylphenoxy polyethoxy ethanol solution is then agitated with a sterile swab to suspend the microorganism grown on the slant. Each resulting suspension is diluted into sterile saline (1 part suspension: 9 parts sterile saline). Aliquots of these dilutions are placed in individual wells of Steer's Replicator and petri plates inoculated as previously described. The petri plates are incubated at 30° C. and read after 48 hours for yeast and 72 hours for fungi.
as §4, §5

[11] = test system: Candida albicans (Ca); assay: MIC in malt yeast agar, Candida albicans; assay type: cell-based, Candida albicans ATCC 10231; settings: malt yeast agar; read-out: Minimum Inhibitory Concentration, Ca
Procedure: as §1, §6, §4, §5

[12] = test system: Penicillium chrysogenum (Pc); assay: MIC in malt yeast agar, Penicillium chrysogenum; assay type: cell-based, Penicillium chrysogenum ATCC 9480; settings: malt yeast agar; read-out: Minimum Inhibitory Concentration, Pc
Procedure: as §1, §6, §4, §5

[13] = test system: Saccharomyces cerevisiae (Sc); assay: MIC in malt yeast agar, Saccharomyces cerevisiae; assay type: cell-based, Saccharomyces cerevisiae ATCC 4105; settings: read-out: Minimum Inhibitory Concentration, Sc
Procedure: as §1, §6, §4, §5

[14] = test system: Trichoderma viride (Tv); assay: MIC in malt yeast agar, Trichoderma viride; assay type: cell-based, Trichoderma viride ATCC 8678; settings: malt yeast agar; read-out: Minimum Inhibitory Concentration, Tv
Procedure: as §1, §6, §4, §5

[15] = test system: Aureobasidium pullulan (Ap); assay: MIC in malt yeast agar, Aureobasidium pullulan; assay type: cell-based, Aureobasidium pullulan ATCC 16622; settings: malt yeast agar; read-out: Minimum Inhibitory Concentration, Ap
Procedure: as §1, §6, §4, §5

[16] = test system: Fusarium oxysporum (Fo); assay: MIC in malt yeast agar, Fusarium oxysporum; assay type: cell-based, Fusarium oxysporum ATCC 48112; settings: malt yeast agar; read-out: Minimum Inhibitory Concentration, Fo
Procedure: as §1, §6, §4, §5

[17] = pH 6.8, read-out: Minimum Inhibitory Concentration, Kp
[18] = pH 8.2, read-out: Minimum Inhibitory Concentration, Kp
[19] = pH 6.8, read-out: Minimum Inhibitory Concentration, Pv
[20] = pH 8.2, read-out: Minimum Inhibitory Concentration, Pv
[21] = Pseudomonas aeruginosa, pH 8.2; read-out: Minimum Inhibitory Concentration, PRD
[22] = pH 6.8, read-out: Minimum Inhibitory Concentration, Pa
[23] = pH 8.2, read-out: Minimum Inhibitory Concentration, Pa

Measured: MIC

CCCCCCCCCCSC#CC#N [E, 3-decylthio-2-propynenitrile]
500 µg/mL: [7]; [23] | [12] | [14] | [16]
100 µg/mL: [1]; pH 6.8 | [3]; Escherichia coli, pH 8.2; read-out: Minimum Inhibitory Concentration, Ec
25 µg/mL: [1]; pH 8.2 | [6]; [21] | [9]; pH 6.8 | [9]; pH 8.2 | [13]
> 500 µg/mL: [2]; Klebsiella aerogenes, pH 6.8, read-out: Minimum Inhibitory Concentration, Ea | [2]; Klebsiella aerogenes, pH 8.2, read-out: Minimum Inhibitory Concentration, Ea | [3]; Escherichia coli, pH 6.8, read-out: Minimum Inhibitory Concentration, Ec | [4]; [17] | [4]; [18] | [5]; [19] | [5]; [20] | [6]; Pseudomonas aeruginosa, pH 6.8, read-out: Minimum Inhibitory Concentration, PRD | [7]; [22] | [8]; Salmonella enterica, CHOLERAESUIS, pH 6.8, read-out: Minimum Inhibitory Concentration, Sc | [8]; Salmonella enterica, CHOLERAESUIS, pH 8.2, read-out: Minimum Inhibitory Concentration, Sc | [10] | [11] | [15]

CCCCCCCCCCCCSC#CC#N [F, 3-dodecylthio-2-propynenitrile]
500 µg/mL: [7]; [23] | [12]
> 500 µg/mL: [2]; Klebsiella aerogenes, pH 6.8; read-out: Minimum Inhibitory Concentration, Ea | [2]; Klebsiella aerogenes, pH 8.2; read-out: Minimum Inhibitory Concentration, Ea | [3]; Escherichia coli, pH 6.8; read-out: Minimum Inhibitory Concentration, Ec | [3]; Escherichia coli, pH 8.2, read-out: Minimum Inhibitory Concentration, Ec | [4]; [17] | [4]; [18] | [5]; [19] | [5]; [20] | [6]; Pseudomonas aeruginosa, pH 6.8; read-out: Minimum Inhibitory Concentration, PRD | [7]; [22] | [8]; Salmonella enterica, CHOLERAESUIS, pH 6.8; read-out: Minimum Inhibitory Concentration, Sc | [8]; Salmonella enterica, CHOLERAESUIS, pH 8.2; read-out: Minimum Inhibitory Concentration, Sc | [9]; pH 6.8 | [10] | [11] | [13]; malt yeast agar | [14] | [15] | [16]
25 µg/mL: [9]; pH 8.2
100 µg/mL: [1]; pH 6.8 | [1]; pH 8.2 | [6]; [21]

Source: patent US5198445A, “Composition and use of substituted 3-thio-2-propynenitriles as industrial antimicrobials” (The Dow Chemical Company, priority 1992, dated 1993)
